From patent publication US6476018B1, “Fused imidazole derivatives as multidrug resistance modulators” (Janssen Pharmaceutica N.V., priority 1996, dated 2002)

System: P388/ADR (adriamycine resistance cell line) murine leukemia
Assay: MDR in vivo test: reversal of adriamycine resistance in P388/ADR murine leukemia (survival)
Conditions: P388/ADR mice, daily i.p. day 1-10
Procedure: Male B6D2F1 mice (18-21 g) were injected intraperitoneally with 1×10^5 P388/ADR cells at day 0. Daily intraperitoneal treatment with adriamycine, a test compound of formula (I) or a combination of both was installed from day 1 until day 10. Control animals received the vehicle (15% 4-OH-propyl-β-cyclodextrine in saline). Each group consisted of 8 animals. Adriamycine was dosed at a concentration of 1.25 mg/kg body weight, half the maximal tolerable dose of adriamycine in this treatment schedule. The test compound was dosed at 20, 10, 5, 2.5, 1.25 and 0.63 mg/kg either as single treatment or combined with adriamycine.
Survival of the animals was recorded each day and expressed as a percentage of the median survival in the treated groups compared to the median survival in the control group, the latter to be said to be 100%.
Table C-1 lists the effect of compound 6 and adriamycine on the survival of mice injected with P388/ADR leukemia.
doses of compound 6 and adriamycine are expressed as mg/kg body weight.
the column “Survival Days” give the median day of death after inoculation of 1×10^5 P388/ADR cells at day 0, with the minimum and maximum number of days shown in parantheses
column “% Change vs. ADR” give the difference in MST % of the different groups compared to the MST % in the adriamycine-monotherapy group.

SMILES | Survival Days med (min-max) (compound 6 0 mg/kg, adriamycine 1.25 mg/kg) | Survival Days med (min-max) (compound 6 5 mg/kg, adriamycine 0 mg/kg) | MST % (compound 6 20 mg/kg, adriamycine 0 mg/kg, control = 100%)
COc1cccc2c1C(=O)c1c(O)c3c(c(O)c1C2=O)C[C@@](O)(C(=O)CO)C[C@@H]3O[C@H]1C[C@H](N)[C@H](O)[C@H](C)O1 [Adriamycine, adriamycine, reference compound] | 13 (12-15) days |  | 
COC(=O)c1cnc2n1CCc1ccccc1C2=C1CCN(CCc2ccc(OCc3ccc4ccccc4n3)cc2)CC1 [Compound 6, methyl 6,11-dihydro-11-[1-[2-[4-(2-quinolinylmethoxy)phenyl]ethyl]-4-piperidinylidene]-5H-imidazo[2,1-b][3]-benzazepine-3-carboxylate] |  | 11.5 (10-13) days | 1oo
